# “Also recorded” adds a separate entry of the source. No end group written: not given here. *: point of attachment. For = O=C*
# Key:
# FPRL-1 = target: T1, FPRL-1 (Homo sapiens, UniProt P25090); test: Formyl peptide receptor assay, cAMP-GLO, recombinant CHO-K1 cells; format: cell-based; conditions: 10 pM–5 μM BacSp222, CHO-K1 cells overexpressing FPRL-1, cAMP-GLO; fMLP positive control (data not shown)
# T1 construct: host or cells: CHO-K1
# Experimental: Activation of the cellular formyl-peptide receptor was assayed using cAMPZen FroZen N-formyl peptide (FPRL1) human recombinant CHO-K1 cells (Perkin-Elmer) and a cAMP-GLO bioluminescent assay (Promega) largely according to the protocols provided by the manufacturers. Formyl-methionyl-leucyl-phenylalanine peptide (fMLP, Sigma) was used as a positive control, and the BacSp222 concentrations tested were 0.01, 0.1, 1.0, 10, 100, 1000, and 5000 nM.
# [1] = target: T2, pepsin from porcine gastric mucosa (Sus scrofa, UniProt P00791); test: Susceptibility to proteolysis, residual bactericidal activity; format: in vitro ADME; conditions: 30 μM peptide, 100 mM ammonium acetate pH 4.0, enzyme:peptide 1:50 or 1:10 (w/w), 3 hours, 37 °C; residual activity by radial diffusion assay on B. subtilis; triplicate
# T2 construct: purchased Sigma; host or cells: porcine gastric mucosa
# Experimental: (§1) The bactericidal activity of BacSp222 was also determined using the radial diffusion assay. In TSB agar (1%, w/v) containing a 200× diluted overnight culture of Bacillus subtilis ATCC 6633, wells of 2.4-mm diameter were created by drilling out the agar and filling the hole with 10 μl of the BacSp222 preparation for testing. Following overnight incubation at 37 °C, the bactericidal activity was measured as the area of the inhibition zones.
# (§2) The temperature stability of BacSp222 (30 μM final concentration) was determined in PBS. The solution was incubated for 1 or 3 h at 72 °C (typical temperature of pasteurization) or at 100 °C. Independently, a solution of bacteriocin was also subjected to a full cycle of autoclaving (20 min at 121 °C). The susceptibility of BacSp222 to proteolysis was verified using S. aureus staphopain C and V8 peptidase, human neutrophil elastase, human cathepsin G (Biocentrum), bovine TPCK-treated trypsin, pepsin from porcine gastric mucosa (Sigma), and proteinase K (A&A Biotechnology). The dried samples of BacSp222 were dissolved to a final concentration of 30 μM in the following buffers: 100 mM Tris-HCl pH 8.0 containing 5 mM CaCl2 (for trypsin and proteinase K), 100 mM Tris-HCl pH 7.5 containing 5 mM cysteine hydrochloride and 5 mM EDTA (for staphopain C), 100 mM Tris-HCl pH 8.0 (for elastase), 100 mM Tris-HCl pH 7.5 containing 500 mM NaCl (for cathepsin G), 100 mM sodium phosphate pH 7.8 (for V8 peptidase), and 100 mM ammonium acetate pH 4.0 (for pepsin). The peptidases were added at 1:50 or 1:10 (enzyme:BacSp222) ratios by weight, and the mixtures were incubated for 1 or 3 h at 37 °C. The residual activity was determined with the radial diffusion assay using Bacillus subtilis as an indicator strain. All of the above experiments were performed in triplicate.
# proteinase K = target: T3, proteinase K (Parengyodontium album, UniProt P06873); test: as above; format: in vitro ADME; conditions: 30 μM peptide, 100 mM Tris-HCl pH 8.0 with 5 mM CaCl2, enzyme:peptide 1:50 or 1:10 (w/w), 3 hours, 37 °C; residual activity by radial diffusion assay on B. subtilis; triplicate
# T3 construct: purchased A&A Biotechnology
# Experimental: as §1, §2
# [2] = target: T4, human neutrophil elastase (Homo sapiens, UniProt P08246); test: as above; format: in vitro ADME; conditions: 30 μM peptide, 100 mM Tris-HCl pH 8.0, enzyme:peptide 1:50 or 1:10 (w/w), 3 hours, 37 °C; residual activity by radial diffusion assay on B. subtilis; triplicate
# T4 construct: purchased Biocentrum
# Experimental: as §1, §2
# T1 sequence (P25090 whole entry): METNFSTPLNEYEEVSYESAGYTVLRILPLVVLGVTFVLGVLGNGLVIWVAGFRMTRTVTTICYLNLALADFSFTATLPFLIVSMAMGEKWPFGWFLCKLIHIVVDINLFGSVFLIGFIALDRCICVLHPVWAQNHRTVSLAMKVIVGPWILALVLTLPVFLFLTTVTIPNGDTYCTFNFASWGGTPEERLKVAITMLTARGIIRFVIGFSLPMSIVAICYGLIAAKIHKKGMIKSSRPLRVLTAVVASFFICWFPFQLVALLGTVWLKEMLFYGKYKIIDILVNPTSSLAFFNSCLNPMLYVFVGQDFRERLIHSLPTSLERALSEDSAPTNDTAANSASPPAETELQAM
# T2 sequence (P00791 60-385): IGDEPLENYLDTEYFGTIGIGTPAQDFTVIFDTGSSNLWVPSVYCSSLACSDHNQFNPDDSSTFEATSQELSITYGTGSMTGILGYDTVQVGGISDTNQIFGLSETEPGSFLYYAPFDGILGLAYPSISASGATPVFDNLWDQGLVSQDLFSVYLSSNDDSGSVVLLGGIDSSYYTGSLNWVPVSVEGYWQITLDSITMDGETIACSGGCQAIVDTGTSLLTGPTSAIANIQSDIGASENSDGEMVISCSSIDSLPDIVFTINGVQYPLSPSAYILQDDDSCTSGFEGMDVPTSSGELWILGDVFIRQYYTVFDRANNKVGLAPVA
# T4 sequence (P08246 30-267): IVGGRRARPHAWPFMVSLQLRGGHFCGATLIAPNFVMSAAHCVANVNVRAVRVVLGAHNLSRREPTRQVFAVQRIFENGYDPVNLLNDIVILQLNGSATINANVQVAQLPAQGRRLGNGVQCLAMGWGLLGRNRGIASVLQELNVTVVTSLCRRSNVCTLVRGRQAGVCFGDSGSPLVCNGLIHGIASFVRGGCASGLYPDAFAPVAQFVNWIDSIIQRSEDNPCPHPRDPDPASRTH
# T3 sequence (P06873 106-384): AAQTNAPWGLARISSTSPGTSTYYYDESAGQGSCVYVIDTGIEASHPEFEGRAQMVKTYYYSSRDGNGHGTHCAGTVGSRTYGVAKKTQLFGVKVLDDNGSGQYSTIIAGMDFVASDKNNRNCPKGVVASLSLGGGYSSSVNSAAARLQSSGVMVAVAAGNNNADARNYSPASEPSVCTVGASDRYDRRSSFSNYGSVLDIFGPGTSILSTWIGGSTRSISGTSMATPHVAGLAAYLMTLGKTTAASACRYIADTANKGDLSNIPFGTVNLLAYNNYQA
substance,measurement,setting,value
For-MAGLLRFLLSKGRALYNWAKSHVGKVWEWLKSGATYEQIKEWIENALGWR [BacSp222],stimulation of formyl-peptide receptor,FPRL-1,not able to stimulate; also recorded: did not activate
same,activity of BacSp222 after incubation with the enzyme,[1],not significantly reduced
same,activity of BacSp222 after incubation with the enzyme,proteinase K,not significantly reduced
same,activity of BacSp222 after incubation with the enzyme,[2],not significantly reduced

# — article PMC4585962, “A peptide factor secreted by Staphylococcus pseudintermedius exhibits properties of both bacteriocins and virulence factors” (Scientific Reports, 2015)
